In article PMC6270011, “Design and Synthesis of Arylthiophene-2-Carbaldehydes via Suzuki-Miyaura Reactions and Their Biological Evaluation” (Molecules, 2013):
In brackets after ≈: the same amount, converted by molar mass. Read-outs that look alike come from different tables or passages of the source.

What was measured:
[1] = system: Bacillus subtilis; assay: Antibacterial activity (disc / inhibition zone) against Bacillus subtilis; details: for zone of inhibition at 25 µg/mL / zone of inhibition at 50 µg/mL: read-out: Inhibition zone, B. subtilis
[2] = system: human red blood cells (erythrocytes); format: cell-based; details: for Haemolytic activity, percentage of lysis (Average ± SD): human erythrocytes, 37 °C, 35 min
Protocol: Three mL of freshly obtained human blood was placed in heparinized tubes to avoid coagulation, gently mixed and poured into a sterile 15 mL Falcon tube and centrifuged for 5 min at 1,000 ×g. The supernatant was discarded and red blood cells were washed three times with chilled (4 °C) sterile isotonic phosphate buffer saline pH 7.4 (5 mL). Erythrocytes (10^8 cells/mL) were maintained for each assay by dilution with phosphate buffer saline. Erythrocytes were counted on a heamacytometer. Twenty µL of each compound was mixed with red blood cells suspension (180 μL) separately. The samples were incubated at 37 °C for 35 min. The samples were placed on ice for 5 min and then agitated at 1,000 ×g for 5 min. Supernatant (100 µL) were taken from each tube and diluted 10 times with chilled (4 °C) phosphate buffered saline. Triton X-100 (0.1% v/v) was taken as a positive control and PBS was negative control and then subjected to the same process. […] The percentage RBSs lyses for each sample was calculated.

[3] = Nitric oxide (NO) scavenging assay; format: biochemical
From the text: Nitric oxide (NO) is a free radical causing inflammatory disorders and cancer in the human body when sodium nitroprusside decomposes to produce nitric oxide. The antioxidant activity of various thiophene derivatives has been reported in the literature and it has also been observed that compounds with high antioxidant activity served as antitumor agents. The newly synthesized compounds reacted directly with nitric oxide and inhibited nitrite formation in an excellent way.
The reaction mixtures comprising sample solution (2 µL), phosphate buffer (17 µL) and sodium nitroprusside (20 µL) were incubated at 37 °C for 2 h in well plates. Then Griess reagent (20 µL, 0.3% sulphanilic acid in glacial acetic acid + 0.1% naphthylethylenediamine (NED): equal volumes of both solutions mixed just before use) was added to each well plate and the mixture kept at room temperature for 20 min to develop the color. The absorbance was measured at 528 nm by using an ELISA reader. The results were processed using Gen 5 software. All the reactions were performed in triplicate. Positive control (containing known antioxidant) and control (containing all samples) were run in parallel. Negative control was used to calibrate the instrument. The % age antioxidant activity was determined by using the following formula: % antioxidant activity = [(Absorbance of control − absorbance of sample)/(Absorbance of control)] × 100

[4] = system: Salmonella typhi; assay: Antibacterial activity (disc / inhibition zone) against Salmonella typhi; details: Salmonella enterica; for zone of inhibition at 25 µg/mL / zone of inhibition at 50 µg/mL: read-out: Inhibition zone, S. typhi
[5] = system: Escherichia coli; assay: Antibacterial activity (disc / inhibition zone) against Escherichia coli; details: for zone of inhibition at 25 µg/mL / zone of inhibition at 50 µg/mL: read-out: Inhibition zone, E.coli; for IC50: read-out: IC50 against Escherichia coli
[6] = system: Staphylococcus aureus; assay: Antibacterial activity (disc / inhibition zone) against Staphylococcus aureus; details: for zone of inhibition at 25 µg/mL / zone of inhibition at 50 µg/mL: read-out: Inhibition zone, S. aureus
[7] = system: Pseudomonas aeruginosa; assay: Antibacterial activity (disc / inhibition zone) against Pseudomonas aeruginosa; details: read-out: Inhibition zone, P. aeruginosa
[8] = system: Shigella dysenteriae; assay: Antibacterial activity (disc / inhibition zone) against Shigella dysenteriae; details: read-out: Inhibition zone, S. dysenteriae
[9] = 25 µg/mL, read-out: % Activity at 25 µg (NO scavenging)
[10] = 50 µg/mL, read-out: % Activity at 50 µg (NO scavenging)
[11] = 100 µg/mL, read-out: % Activity at 100 µg (NO scavenging)

In the case of `O=Cc1cc(-c2ccc(F)c(Cl)c2)cs1` [2i, 4-(3-Chloro-4-fluorophenyl)thiophene-2-carbaldehyde], the zone of inhibition at 25 µg/mL [1] is reported as 36.5 ± 0.04 mm, the zone of inhibition at 50 µg/mL [1] is reported as 56 ± 0.5 mm and the “Haemolytic activity, in words” value [2] is reported as “highest haemolytic action”. For the same compound, the “Haemolytic activity, percentage of lysis (Average ± SD)” value [2] was 9.779 ± 0.095%, the “IC50 (NO scavenging)” value [3] was 46.1 µg/mL (≈ 192 µM) and the inhibition [3, 9] was 12 ± 0.05%. It also gave an inhibition [3, 10] of 57 ± 0.0021%, an inhibition [3, 11] of 72 ± 0.009% and a melting point of 108 to 110 °C. The zone of inhibition at 25 µg/mL [4] was 33 ± 0.25 mm, the zone of inhibition at 50 µg/mL [4] was 59.5 ± 0.25 mm and the zone of inhibition at 25 µg/mL [5] was 16 ± 0.043 mm. It also gave a zone of inhibition at 50 µg/mL [5] of 26 ± 0.023 mm, a zone of inhibition at 25 µg/mL [6] of 27.8 ± 0.12 mm and a zone of inhibition at 50 µg/mL [6] of 58 ± 0.16 mm. The zone of inhibition at 25 µg/mL [7] was 42 ± 0.04 mm, the zone of inhibition at 50 µg/mL [7] was 66 ± 0.01 mm and the zone of inhibition at 25 µg/mL [8] was 43 ± 0.105 mm. It also gave a zone of inhibition at 50 µg/mL [8] of 58 ± 0.16 mm.

For `O=Cc1cc(-c2ccccc2)cs1` [2a, 4-Phenylthiophene-2-carbaldehyde], the zone of inhibition at 50 µg/mL [1] was 61 ± 0.14 mm, the “Haemolytic activity, percentage of lysis (Average ± SD)” value [2] was 3.947 ± 0.078% and the “IC50 (NO scavenging)” value [3] was 92.5 µg/mL (≈ 491 µM). It also gave an inhibition [3, 9] of 12 ± 0.037%, an inhibition [3, 10] of 33 ± 0.0035% and an inhibition [3, 11] of 48 ± 0.049%. It also gave a melting point of 57 to 59 °C, a zone of inhibition at 50 µg/mL [4] of 61 ± 0.13 mm and a zone of inhibition at 50 µg/mL [5] of 47 ± 0.15 mm. The zone of inhibition at 50 µg/mL [6] was 63 ± 0.18 mm, the zone of inhibition at 50 µg/mL [7] was 67.6 ± 0.001 mm and the zone of inhibition at 50 µg/mL [8] was 63 ± 0.18 mm.

For `Cc1ccc(-c2csc(C=O)c2)cc1` [2e, 4-p-Tolylthiophene-2-carbaldehyde], the zone of inhibition at 25 µg/mL [1] was 22.4 ± 0.13 mm, the zone of inhibition at 50 µg/mL [1] was 54 ± 0.17 mm and the “Haemolytic activity, in words” value [2] was “lowest haemolytic property”. The “Haemolytic activity, percentage of lysis (Average ± SD)” value [2] was 3.356 ± 0.075%, the inhibition [3, 9] was -15 ± 0.04% and the inhibition [3, 10] was -12 ± 0.037%. For the same compound, the inhibition [3, 11] was 3 ± 0.0014%, the melting point was 58 to 60 °C and the zone of inhibition at 25 µg/mL [4] was 22.2 ± 0.14 mm. The zone of inhibition at 50 µg/mL [4] was 53 ± 0.12 mm, the IC50 [5] was 40 µg/mL (≈ 198 µM) and the zone of inhibition at 25 µg/mL [5] was 32 ± 0.05 mm. For the same compound, the zone of inhibition at 50 µg/mL [5] was 62 ± 0.01 mm, the zone of inhibition at 25 µg/mL [6] was 28 ± 0.2 mm and the zone of inhibition at 50 µg/mL [6] was 58 ± 0.01 mm. It also gave a zone of inhibition at 25 µg/mL [7] of 44 ± 0.02 mm, a zone of inhibition at 50 µg/mL [7] of 60 ± 0.03 mm and a zone of inhibition at 25 µg/mL [8] of 41 ± 0.05 mm. It also gave a zone of inhibition at 50 µg/mL [8] of 58 ± 0.01 mm.

`O=Cc1cc(-c2ccc(Cl)s2)cs1` [2c] showed an IC50 ([1]; read-out: IC50 against Bacillus subtilis) of 39.4 µg/mL (≈ 172 µM), a zone of inhibition at 25 µg/mL [1] of 36.2 ± 0.05 mm and a zone of inhibition at 50 µg/mL [1] of 60 ± 0.01 mm. The “Haemolytic activity, percentage of lysis (Average ± SD)” value [2] was 3.934 ± 0.095%, the “IC50 (NO scavenging)” value [3] was 83.3 µg/mL (≈ 364 µM) and the inhibition [3, 9] was 18 ± 0.007%. It also gave an inhibition [3, 10] of 40 ± 0.038%, an inhibition [3, 11] of 55 ± 0.04% and a melting point of 229 to 231 °C. The zone of inhibition at 25 µg/mL [4] was 34 ± 0.05 mm, the zone of inhibition at 50 µg/mL [4] was 64 ± 0.5 mm and the zone of inhibition at 25 µg/mL [5] was 14 ± 0.14 mm. The zone of inhibition at 50 µg/mL [5] was 24 ± 0.17 mm, the zone of inhibition at 25 µg/mL [6] was 34 ± 0.01 mm and the zone of inhibition at 50 µg/mL [6] was 64 ± 0.11 mm. For the same compound, the zone of inhibition at 25 µg/mL [7] was 45 ± 0.019 mm, the zone of inhibition at 50 µg/mL [7] was 60 ± 0.009 mm and the zone of inhibition at 25 µg/mL [8] was 35 ± 0.01 mm. For the same compound, the zone of inhibition at 50 µg/mL [8] was 64 ± 0.11 mm.

In the case of `Cc1ccc(-c2csc(C=O)c2)s1` [2j, 5-Methyl-2,3-bisthiophene-5-carbaldehyde], the zone of inhibition at 25 µg/mL [1] is reported as 27.1 ± 0.01 mm, the zone of inhibition at 50 µg/mL [1] is reported as 60 ± 0.05 mm and the “Haemolytic activity, percentage of lysis (Average ± SD)” value [2] is reported as 4.135 ± 0.095%. The “IC50 (NO scavenging)” value [3] was 49.3 µg/mL (≈ 237 µM), the inhibition [3, 9] was 15 ± 0.021% and the inhibition [3, 10] was 50 ± 0.024%. It also gave an inhibition [3, 11] of 65 ± 0.013%, a melting point of 218 to 220 °C and an IC50 ([4]; read-out: IC50 against Salmonella typhi) of 37.4 µg/mL (≈ 180 µM). It also gave a zone of inhibition at 25 µg/mL [4] of 29 ± 0.1 mm, a zone of inhibition at 50 µg/mL [4] of 63 ± 0.1 mm and an IC50 [5] of 40 µg/mL (≈ 192 µM). For the same compound, the zone of inhibition at 25 µg/mL [5] was 26 ± 0.03 mm, the zone of inhibition at 50 µg/mL [5] was 66 ± 0.43 mm and the IC50 ([6]; read-out: IC50 against Staphylococcus aureus) was 37.4 µg/mL (≈ 180 µM). It also gave a zone of inhibition at 25 µg/mL [6] of 35.2 ± 0.01 mm, a zone of inhibition at 50 µg/mL [6] of 65 ± 0.09 mm and a zone of inhibition at 25 µg/mL [7] of 36 ± 0.16 mm. It also gave a zone of inhibition at 50 µg/mL [7] of 69 ± 0.16 mm, a zone of inhibition at 25 µg/mL [8] of 35 ± 0.2 mm and a zone of inhibition at 50 µg/mL [8] of 65 ± 0.09 mm.
